The supplement of paper PMC10307832

Experiments:
Assay in all cases: relative viability (nuclei count vs DMSO), 5 days (fraction); higher = more cells survive
Everolimus + OSI-027 = compound: CO[C@H]1C[C@@H]2CC[C@@H](C)[C@@](O)(O2)C(=O)C(=O)N2CCCC[C@H]2C(=O)O[C@H]([C@H](C)C[C@@H]2CC[C@@H](OCCO)[C@H](OC)C2)CC(=O)[C@H](C)/C=C(\C)[C@@H](O)[C@@H](OC)C(=O)[C@H](C)C[C@H](C)/C=C/C=C/C=C/1C [Everolimus] + COc1cccc2cc(-c3nc([C@H]4CC[C@H](C(=O)O)CC4)n4ncnc(N)c34)[nH]c12 [OSI-027] (partner 0.5 µM)
Method in brief: (§1)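 A single step with final 0.05% Triton X-100, 1% formaldehyde and 1 ug/ml Hoechst fixed the cells and stained nuclei 5 days after treatment. Lung cancer cell lines in 1536-well plates had been treated by pin tool the day after seeding with one drug alone or a fixed anchor-drug dose plus five library-drug doses (not always all listed) in √10 steps, and nuclei were counted on 4× images. Relative viability is the ratio of nuclei in treated wells to nuclei in vehicle wells, taken as the median of duplicate plates.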

Everolimus + Tozasertib = compound: CO[C@H]1C[C@@H]2CC[C@@H](C)[C@@](O)(O2)C(=O)C(=O)N2CCCC[C@H]2C(=O)O[C@H]([C@H](C)C[C@@H]2CC[C@@H](OCCO)[C@H](OC)C2)CC(=O)[C@H](C)/C=C(\C)[C@@H](O)[C@@H](OC)C(=O)[C@H](C)C[C@H](C)/C=C/C=C/C=C/1C [Everolimus] + Cc1cc(Nc2cc(N3CCN(C)CC3)nc(Sc3ccc(NC(=O)C4CC4)cc3)n2)n[nH]1 [Tozasertib] (partner 0.1 µM)
Method in brief: as §1

Everolimus + Crizotinib = compound: CO[C@H]1C[C@@H]2CC[C@@H](C)[C@@](O)(O2)C(=O)C(=O)N2CCCC[C@H]2C(=O)O[C@H]([C@H](C)C[C@@H]2CC[C@@H](OCCO)[C@H](OC)C2)CC(=O)[C@H](C)/C=C(\C)[C@@H](O)[C@@H](OC)C(=O)[C@H](C)C[C@H](C)/C=C/C=C/C=C/1C [Everolimus] + C[C@@H](Oc1cc(-c2cnn(C3CCNCC3)c2)cnc1N)c1c(Cl)ccc(F)c1Cl [Crizotinib] (partner 1 µM)
Method in brief: as §1

Everolimus + Linsitinib = compound: CO[C@H]1C[C@@H]2CC[C@@H](C)[C@@](O)(O2)C(=O)C(=O)N2CCCC[C@H]2C(=O)O[C@H]([C@H](C)C[C@@H]2CC[C@@H](OCCO)[C@H](OC)C2)CC(=O)[C@H](C)/C=C(\C)[C@@H](O)[C@@H](OC)C(=O)[C@H](C)C[C@H](C)/C=C/C=C/C=C/1C [Everolimus] + C[C@]1(O)C[C@@H](c2nc(-c3ccc4ccc(-c5ccccc5)nc4c3)c3c(N)nccn32)C1 [Linsitinib] (partner 1 µM)
Method in brief: as §1

| Cell Line | relative viability (Everolimus + OSI-027; first compound 0.01 µM) | relative viability (Everolimus + OSI-027; first compound 0.03162 µM) | relative viability (Everolimus + OSI-027; first compound 0.1 µM) | relative viability (Everolimus + OSI-027; first compound 0.3162 µM) | relative viability (Everolimus + OSI-027; first compound 1 µM) | relative viability (Everolimus + Tozasertib; first compound 0.01 µM) | relative viability (Everolimus + Tozasertib; first compound 0.03162 µM) | relative viability (Everolimus + Tozasertib; first compound 0.1 µM) | relative viability (Everolimus + Tozasertib; first compound 0.3162 µM) | relative viability (Everolimus + Tozasertib; first compound 1 µM) | relative viability (Everolimus + Crizotinib; first compound 0.01 µM) | relative viability (Everolimus + Crizotinib; first compound 0.03162 µM) | relative viability (Everolimus + Crizotinib; first compound 0.1 µM) | relative viability (Everolimus + Crizotinib; first compound 0.3162 µM) | relative viability (Everolimus + Crizotinib; first compound 1 µM) | relative viability (Everolimus + Linsitinib; first compound 0.01 µM) | relative viability (Everolimus + Linsitinib; first compound 0.03162 µM) | relative viability (Everolimus + Linsitinib; first compound 0.1 µM) | relative viability (Everolimus + Linsitinib; first compound 0.3162 µM) | relative viability (Everolimus + Linsitinib; first compound 1 µM) |
| --- | --- | --- | --- | --- | --- | --- | --- | --- | --- | --- | --- | --- | --- | --- | --- | --- | --- | --- | --- | --- |
| COR-L 105 | 0.43 | 0.418 | 0.366 | 0.457 | 0.445 | 0.312 | 0.305 | 0.332 | 0.346 | 0.292 | 0.549 | 0.642 | 0.469 | 0.544 | 0.49 | 0.743 | 0.604 | 0.585 | 0.686 | 0.504 |
| ABC-1 | 0.342 | 0.281 | 0.279 | 0.357 | 0.316 | 0.183 | 0.172 | 0.163 | 0.193 | 0.208 | 0.74 | 0.799 | 0.709 | 0.584 | 0.761 | 0.599 | 0.351 | 0.55 | 0.446 | 0.535 |
| HCC-15 | 0.502 | 0.517 | 0.447 | 0.543 | 0.546 | 0.483 | 0.457 | 0.437 | 0.365 | 0.272 | 0.931 | 0.887 | 0.791 | 0.829 | 0.75 | 0.787 | 0.777 | 0.692 | 0.739 | 0.653 |
| PC-3 [JPC-3] | 0.7 | 0.602 | 0.588 | 0.512 | 0.631 | 0.927 | 0.806 | 0.849 | 0.868 | 0.873 | 1.02 | 0.992 | 0.911 | 0.96 | 1.02 | 0.869 | 0.914 | 0.785 | 0.834 | 0.866 |
| NCI-H1993 | 0.566 | 0.554 | 0.53 | 0.529 | 0.553 | 0.482 | 0.508 | 0.573 | 0.521 | 0.485 | 0.688 | 0.659 | 0.702 | 0.642 | 0.705 | 0.689 | 0.63 | 0.666 | 0.694 | 0.691 |
| NCI-H358 | 0.347 | 0.337 | 0.336 | 0.34 | 0.378 | 0.0999 | 0.106 | 0.0871 | 0.101 | 0.0971 | 0.528 | 0.592 | 0.509 | 0.542 | 0.429 | 0.421 | 0.533 | 0.544 | 0.388 | 0.347 |
| NCI-H1915 | 0.531 | 0.516 | 0.45 | 0.512 | 0.49 | 0.514 | 0.46 | 0.42 | 0.432 | 0.418 | 0.849 | 0.784 | 0.798 | 0.711 | 0.753 | 0.994 | 0.973 | 0.935 | 0.914 | 0.827 |
| RERF-LC-KJ | 0.449 | 0.358 | 0.313 | 0.411 | 0.429 | 0.398 | 0.436 | 0.382 | 0.431 | 0.428 | 0.804 | 0.627 | 0.683 | 0.667 | 0.567 | 0.86 | 0.679 | 0.609 | 0.531 | 0.571 |
| LOU-NH91 | 0.529 | 0.57 | 0.531 | 0.524 | 0.516 | 0.637 | 0.608 | 0.63 | 0.609 | 0.656 | 0.664 | 0.695 | 0.627 | 0.573 | 0.58 | 0.794 | 0.644 | 0.718 | 0.585 | 0.66 |
| NCI-H2347 | 0.382 | 0.253 | 0.326 | 0.501 | 0.34 | 0.531 | 0.519 | 0.365 | 0.506 | 0.305 | 0.683 | 0.568 | 0.554 | 0.546 | 0.58 | 0.912 | 0.911 | 0.581 | 0.798 | 0.769 |
| NCI-H2126 | 0.528 | 0.431 | 0.414 | 0.475 | 0.426 | 0.64 | 0.609 | 0.52 | 0.637 | 0.568 | 0.755 | 0.736 | 0.671 | 0.721 | 0.665 | 0.463 | 0.448 | 0.393 | 0.425 | 0.457 |
| HCC-827 | 0.624 | 0.613 | 0.596 | 0.482 | 0.47 | 0.451 | 0.417 | 0.404 | 0.378 | 0.366 | 0.947 | 0.831 | 0.852 | 0.998 | 0.839 | 1.01 | 0.977 | 0.979 | 1 | 0.838 |
| NCI-H3122 | 0.463 | 0.579 | 0.315 | 0.454 | 0.488 | 0.417 | 0.517 | 0.421 | 0.439 | 0.363 | 0.219 | 0.246 | 0.238 | 0.194 | 0.192 | 0.791 | 0.822 | 0.621 | 0.528 | 0.761 |
| HOP-62 | 0.548 | 0.511 | 0.448 | 0.517 | 0.503 | 0.441 | 0.362 | 0.363 | 0.41 | 0.264 | 0.934 | 0.58 | 0.556 | 0.583 | 0.637 | 0.669 | 0.603 | 0.477 | 0.607 | 0.449 |
| HCC-44 | 0.382 | 0.438 | 0.434 | 0.384 | 0.548 | 1.07 | 1.07 | 0.94 | 0.97 | 1.19 | 0.912 | 0.935 | 0.774 | 0.86 | 0.677 | 0.467 | 0.545 | 0.313 | 0.349 | 0.411 |
